Measured values reported in publication PMC8480901 (PLoS ONE, 2021).
Several values for one entry are separate records, joined by “and”; a condition that tells them apart may be missing. Identical values can stand only once. Like-named read-outs stand apart in the source and are kept apart here.

Experiments:
[1] = system: LPS-induced acute lung injury; settings: pretreated mice vs no-treatment control group; cited from earlier work
[2] = system: IL-8–activated human neutrophils; assay: Chemotaxis of IL-8–activated human neutrophils (transwell, CellTiter Glo); assay type: cell-based; settings: for Neutrophilic chemotaxis, RLU, Mean / Neutrophilic chemotaxis: % reduction / Neutrophilic chemotaxis, RLU, single replicates: IL-8; for Neutrophilic chemotaxis, RLU, single replicates: listed as Lef
Text: Buffy coat (blood sample fraction comprising white blood cells and platelets) from whole blood was obtained from a healthy adult volunteer at the Croatian Institute of Transfusion Medicine (CITM; Zagreb, Croatia). The CITM ethics committee approved the blood collection process, and the volunteer provided written informed consent prior to blood collection. Neutrophils were isolated from the buffy coat, an aliquot of which was used for cell counting via hematologic analyzer (X500i; Sysmex). […] The diluted buffy coat was drawn into sterile 50-mL syringes and incubated for 30 minutes at RT. Following incubation, the upper layer of leukocyte-rich plasma (35 mL) was decanted into a new sterile 50-mL conical centrifuge tube, carefully layered onto 15 mL of Lymphoprep (Axis-Shield Diagnostics, Ltd., Dundee, UK) and centrifuged at 400×g (brake turned off) for 35 minutes at RT. The supernatant and mononuclear ring were discarded, and the pellet was resuspended in 10 mL of cold sterile MilliQ water. […] Resuspended neutrophils were counted via Sysmex X500i hematologic analyzer.
All test compounds were reconstituted in DMSO (Sigma-Aldrich Chemie GmbH) to 100-mM stock concentrations, taking into consideration and correcting for salt and purity. A 30-mM stock solution of reference compound Sch527123 (MedChemExpress, Monmouth Junction, NJ, USA) was diluted to 10 mM with DMSO.
DMSO was used as vehicle. […] The reference compound was tested at concentrations of 0.003, 0.01, 0.03, 0.1, 0.3, 1, 3, and 10 μM. All compounds were tested in triplicate, and the final DMSO concentration was 0.1% per well.
Test and reference compound working solutions were then added (20 μL/well) for a 10-fold dilution to final testing concentrations. Compounds and cells were mixed by gentle pipetting, and the plate was pre-incubated for 30 minutes at RT with gentle mixing by pipetting.
Negative control wells received 180 μL of migration medium alone. To all wells, 20 μL of compound working solutions or DMSO vehicle was added. Once pre-incubation of cells with compounds was complete, the transwell inserts were carefully placed on the receiver plate, with caution to avoid air bubble formation, which could prevent cell migration. To the upper wells, 75 μL of cell suspension (375,000 cells/well) was added, taking care not to tear the membrane with pipette tips.
After incubation, the number of cells that migrated to the lower wells was quantified by removing the Transwell insert and adding 200 μL of CellTiter Glo reagent (CellTiter-Glo Luminescent Cell Viability Assay, Promega, Madison, WI, USA) to each lower well to quantify the amount of adenosine triphosphate (ATP) present, signaling the presence of metabolically active cells. The plate was incubated for 10 minutes in the dark at RT, followed by transferring 150 μL of solution into wells of a white 96-well plate (Lumitrac 200; Greiner Bio-One International GmbH, Kremsmunster, Austria).
(§1) For the chemotaxis and cytotoxicity evaluations, average relative light unit values were calculated from all untreated vehicle samples and, for each sample, percentage of vehicle value was calculated. The tested compound was considered cytotoxic if reduction from untreated vehicle was ≥20%.

[3] = Pharmacokinetics in plasma and epithelial lining fluid of mice after a single SC dose; assay type: in vivo, BALB/c mice; settings: for AUC(0-t): read-out: AUC0-24h, mean±SEM; for Cmax: read-out: Cmax, mean±SEM
Procedure: Pharmacokinetic parameters were evaluated as previously described. […] Plasma samples were analyzed by liquid chromatography with […] mass spectrometry (Q Exactive Plus; Thermo Fisher Scientific).
Area under the curve (AUC) values were determined using the linear trapezoidal method.

human PBMCs = assay: Cytotoxicity in human PBMCs (adenylate kinase release, ToxiLight); assay type: cell-based; settings: for fold-change of adenylate kinase release at test concentration vs vehicle control, Mean ± SEM: human PBMCs, n=2
Procedure: The effect of t est compounds on cell viabilit y of J 774.2 macrophages and human PBMCs […]
was determined b y comp aring th e aden yl ate kinas e signal obtain ed in the p resence of diff er ent concentrations of compounds with those obtained in DMSO (vehicle) control. Signals were […]
divided,and the results were ex pressed as fold-change versus v ehicle con trol .

human neutrophils = assay: Cytotoxicity in human neutrophils (CellTiter Glo); assay type: cell-based
Procedure: as §1

[4] = female, BALB/c, mouse, epithelial lining fluid (ELF), ELF, mice, single 35 mg/kg SC
[5] = female, BALB/c, mouse, plasma, mice, single 35 mg/kg SC

C[C@@H]1C[C@H]2[C@@H]3CCC4=CC(=O)C=C[C@]4(C)[C@@]3(F)[C@@H](O)C[C@]2(C)[C@@]1(O)C(=O)CO [Dexamethasone]
LPS-induced pulmonary edema, accumulation of inflammatory cells in BALF, and increased inflammatory cytokines (eg, TNF-α and IL-6) [1]: significantly attenuated

C=C[C@]1(C)C[C@@H](OC(=O)CS[C@@H]2CC[C@@H](N)C[C@H]2O)[C@]2(C)[C@H](C)CC[C@]3(CCC(=O)[C@H]32)[C@@H](C)[C@@H]1O [Lefamulin]
IL-8–induced chemotaxis of human neutrophils ([2]; 0.03 to 30 μM): no effect
Neutrophilic chemotaxis, RLU, Mean ([2]; 0.03 µM): 133060 RLU
Neutrophilic chemotaxis: % reduction ([2]; 0.03 µM): -0.0452%
Neutrophilic chemotaxis, RLU, single replicates ([2]; 0.03 µM): 133000 RLU and 133120 RLU
Neutrophilic chemotaxis, RLU, Mean ([2]; 0.1 µM): 130347 RLU
Neutrophilic chemotaxis: % reduction ([2]; 0.1 µM): 2.26%
Neutrophilic chemotaxis, RLU, single replicates ([2]; 0.1 µM): 131200 RLU and 127720 RLU and 132120 RLU
Neutrophilic chemotaxis, RLU, Mean ([2]; 0.3 µM): 132827 RLU
Neutrophilic chemotaxis: % reduction ([2]; 0.3 µM): 0.153%
Neutrophilic chemotaxis, RLU, single replicates ([2]; 0.3 µM): 128480 RLU and 128040 RLU and 141960 RLU
Neutrophilic chemotaxis, RLU, Mean ([2]; 1 µM): 128693 RLU
Neutrophilic chemotaxis: % reduction ([2]; 1 µM): 3.66%
Neutrophilic chemotaxis, RLU, single replicates ([2]; 1 µM): 129760 RLU and 127360 RLU and 128960 RLU
Neutrophilic chemotaxis, RLU, Mean ([2]; 3 µM): 129147 RLU
Neutrophilic chemotaxis: % reduction ([2]; 3 µM): 3.27%
Neutrophilic chemotaxis, RLU, single replicates ([2]; 3 µM): 127920 RLU and 125520 RLU and 134000 RLU
Neutrophilic chemotaxis, RLU, Mean ([2]; 10 µM): 129213 RLU
Neutrophilic chemotaxis: % reduction ([2]; 10 µM): 3.22%
Neutrophilic chemotaxis, RLU, single replicates ([2]; 10 µM): 122760 RLU and 130480 RLU and 134400 RLU
Neutrophilic chemotaxis, RLU, Mean ([2]; 30 µM): 118747 RLU
Neutrophilic chemotaxis: % reduction ([2]; 30 µM): 12%
Neutrophilic chemotaxis, RLU, single replicates ([2]; 30 µM): 115000 RLU and 125400 RLU and 115840 RLU
Neutrophilic chemotaxis, RLU, Mean ([2]; 100 µM): 73307 RLU
Neutrophilic chemotaxis: % reduction ([2]; 100 µM): 51%
Neutrophilic chemotaxis, RLU, single replicates ([2]; 100 µM): 81720 RLU and 76640 RLU and 61560 RLU
plasma AUC0-24h in mice compared with exposures in healthy volunteers after a single dose of 150 mg IV ([3]; 35 mg/kg SC in mice, human data ref 29): comparable
AUC0-24h/Dose, mean ([3]; ELF, mice, single 35 mg/kg SC): 0.36 (μg∙h/mL)/(mg/kg)
Kp ([3]; female, BALB/c, mouse, epithelial lining fluid (ELF) / plasma, mice, single 35 mg/kg SC, read-out: AUC ratio for ELF to plasma): ~2
Tmax [3, 4]: 30 min
AUC(0-t) [3, 4]: 12600 ± 1170 ng·h/mL
Cmax [3, 4]: 2160 ± 500 ng/mL
Tmax [3, 5]: 30 min
AUC(0-t) [3, 5]: 6250 ± 930 ng·h/mL
Cmax [3, 5]: 1330 ± 180 ng/mL
distribution from plasma to ELF (penetration into the lung compartment) ([3]; mice, single SC dose 35 mg/kg): rapid penetration
AUC0-24h/Dose, mean ([3]; plasma, mice, single 35 mg/kg SC): 0.18 (μg∙h/mL)/(mg/kg)
cell viability (human PBMCs; PBMCs, 100 μM): reduced
fold-change of adenylate kinase release at test concentration vs vehicle control, Mean ± SEM (human PBMCs; 0.03 µM): 1.07 ± 0.03 fold-change
fold-change of adenylate kinase release at test concentration vs vehicle control, Mean ± SEM (human PBMCs; 0.1 µM): 1.04 ± 0.01 fold-change
fold-change of adenylate kinase release at test concentration vs vehicle control, Mean ± SEM (human PBMCs; 0.3 µM): 1.03 ± 0.02 fold-change
fold-change of adenylate kinase release at test concentration vs vehicle control, Mean ± SEM (human PBMCs; 1 µM): 1.00 ± 0.01 fold-change
fold-change of adenylate kinase release at test concentration vs vehicle control, Mean ± SEM (human PBMCs; 3 µM): 0.95 ± 0.01 fold-change
fold-change of adenylate kinase release at test concentration vs vehicle control, Mean ± SEM (human PBMCs; 10 µM): 0.93 ± 0.01 fold-change
fold-change of adenylate kinase release at test concentration vs vehicle control, Mean ± SEM (human PBMCs; 30 µM): 0.92 ± 0.03 fold-change
fold-change of adenylate kinase release at test concentration vs vehicle control, Mean ± SEM (human PBMCs; 100 µM): 1.20 ± 0.03 fold-change
% viability at test concentration vs vehicle control, Mean ± SEM (human neutrophils; 0.03 µM, n=3, percentage of RLU): 105 ± 1.36%
% viability at test concentration vs vehicle control, Mean ± SEM (human neutrophils; 0.1 µM, n=3): 106 ± 1.34%
% viability at test concentration vs vehicle control, Mean ± SEM (human neutrophils; 0.3 µM, n=3): 105 ± 2.39%
% viability at test concentration vs vehicle control, Mean ± SEM (human neutrophils; 1 µM, n=3): 103 ± 4.22%
% viability at test concentration vs vehicle control, Mean ± SEM (human neutrophils; 3 µM, n=3): 103 ± 3.07%
% viability at test concentration vs vehicle control, Mean ± SEM (human neutrophils; 10 µM, n=3): 102 ± 2.98%
cytotoxic effects (human neutrophils; 30 μM, cytotoxic if reduction from vehicle ≥20%): no cytotoxic effects
% viability at test concentration vs vehicle control, Mean ± SEM (human neutrophils; 30 µM, n=3): 101 ± 2.58%
% viability at test concentration vs vehicle control, Mean ± SEM (human neutrophils; 100 µM, n=3): 86 ± 2.99%
% viability at test concentration vs vehicle control, Mean ± SEM (human neutrophils; 100 µM, n=3, listed as lefamulin): 86%
